In ChEMBL document CHEMBL5257105, “Identification and structure-activity relationships for a series of N, N-disubstituted 2-aminobenzothiazoles as potent inhibitors of S. aureus” (Bioorg Med Chem Lett, 2023):
Converted amounts (≈) assume the structure as drawn. Values belong to the compound of their own block, whether it stands above or below them. The source made the active and inactive calls. The calls are words filed in the database; no cut-off is given here.

How the values were obtained:
[1] = system: Staphylococcus aureus; assay: Antibacterial activity against Staphylococcus aureus; format: functional; conditions: Staphylococcus aureus; for MIC: read-out: MIC; for MIC80: read-out: MIC80
[2] = (§1) Cytotoxicity against human A549 cells; format: toxicity, cell-based; conditions: A549 cells
[3] = system: A549; assay: as §1; format: toxicity, cell-based; conditions: a549
[4] = system: Escherichia coli; assay: Antibacterial activity against […] Escherichia coli harbouring TolC-deficient mutant; format: functional
[5] = system: Pseudomonas aeruginosa; assay: Antibacterial activity against Pseudomonas aeruginosa PAO1 harbouring delta6 mutant with pore; format: functional
[6] = system: Pseudomonas aeruginosa; assay: Antibacterial activity against Pseudomonas aeruginosa PAO1; format: functional
[7] = system: Staphylococcus aureus; assay: Antibacterial activity against Staphylococcus aureus ATCC 223; format: functional
[8] = system: Staphylococcus aureus; assay: Antibacterial activity against Staphylococcus aureus ATCC 219; format: functional
[9] = system: Staphylococcus aureus; assay: Antibacterial activity against Staphylococcus aureus ATCC 25923; format: functional
[10] = system: Escherichia coli; assay: Antibacterial activity against […] Escherichia coli harbouring TolC-deficient mutant with pore; format: functional
[11] = system: Staphylococcus aureus; assay: Antibacterial activity against Staphylococcus aureus ATCC 217; format: functional
[12] = system: Staphylococcus aureus; assay: Antibacterial activity against Staphylococcus aureus ATCC 215; format: functional
[13] = system: Staphylococcus aureus; assay: Antibacterial activity against Staphylococcus aureus ATCC 716; format: functional
[14] = system: Escherichia coli; assay: Antibacterial activity against Escherichia coli; format: functional
[15] = system: Staphylococcus aureus; assay: Antibacterial activity against Staphylococcus aureus ATCC 701; format: functional
[16] = system: Staphylococcus aureus; assay: Antibacterial activity against Staphylococcus aureus ATCC 711; format: functional
[17] = system: Escherichia coli; assay: Antibacterial activity against wild type Escherichia coli harbouring pore; format: functional
[18] = system: Staphylococcus aureus; assay: Antibacterial activity against Staphylococcus aureus ATCC 216; format: functional
[19] = system: Staphylococcus aureus; assay: Bacteriostatic activity against Staphylococcus aureus ATCC 25923 at 4 times MIC by time kill assay; format: functional, organism-based
[20] = system: Staphylococcus aureus; assay: Bacteriostatic activity against Staphylococcus aureus ATCC 25923 at MIC by time kill assay; format: functional, organism-based
[21] = system: Pseudomonas aeruginosa; assay: Antibacterial activity against Pseudomonas aeruginosa PAO1 harbouring pore; format: functional
[22] = system: Staphylococcus aureus; assay: Bactericidal activity against Staphylococcus aureus ATCC 25923 at 16 times MIC measured after 7 to 24 hrs by time kill assay; format: functional, organism-based; conditions: time 7-24 hrs
[23] = system: Pseudomonas aeruginosa; assay: Antibacterial activity against Pseudomonas aeruginosa PAO1 harbouring delta6 mutant; format: functional
[24] = Selectivity ratio of CC50 for human A549 cells to MIC for Staphylococcus aureus; format: toxicity

- MIC [1]: 2.6 µM (≈ 1.04 µg/mL)
Structure (SMILES): Cc1c(Cl)ccc2sc(N(CCCn3ccnc3)C(=O)c3ccco3)nc12
- CC50 [2]: 27.4 µM

- MIC [1]: 7.4 µM (≈ 2.71 µg/mL)
Structure (SMILES): Cc1cccc2sc(N(CCCn3ccnc3)C(=O)c3ccco3)nc12
- CC50 [2]: 84.7 µM

- MIC [1]: > 100 µM
Structure (SMILES): Cc1nc(Cl)cc2sc(N(CCCn3ccnc3)C(=O)c3ccco3)nc12

- MIC [1]: 2.6 µM (≈ 1.04 µg/mL)
Structure (SMILES): Cc1cc(Cl)cc2sc(N(CCCn3ccnc3)C(=O)c3ccoc3)nc12
- CC50 [3]: 53.4 µM

- MIC [1]: 2.6 µM (≈ 1.08 µg/mL)
Structure (SMILES): Cc1ccc(C(=O)N(CCCn2ccnc2)c2nc3c(C)cc(Cl)cc3s2)o1
- CC50 [3]: 35.2 µM

- MIC [1]: 16.5 µM (≈ 7.11 µg/mL)
Structure (SMILES): Cc1ccc(C(=O)N(CCCn2ccnc2)c2nc3c(C)cc(Cl)cc3s2)s1
- CC50 [3]: 34.1 µM

- MIC [1]: > 100 µM
Structure (SMILES): O=C(c1ccco1)N(CCCn1ccnc1)c1nc2ccc(Cl)nc2s1

- MIC80 [1]: 2.6 µM (≈ 1.2 µg/mL)
Structure (SMILES): Cc1cc(Cl)cc2sc(N(CCCn3ccnc3)CS(=O)(=O)c3ccccc3)nc12
- CC50 [2]: 23.3 µM

- MIC [1]: 44.4 µM (≈ 15.6 µg/mL)
Structure (SMILES): O=C(c1ccco1)N(CCCn1ccnc1)c1nc2ccccc2s1
- CC50 [2]: 142 µM

Structure (SMILES): Cc1cc(Cl)cc2sc(N(CCCn3ccnc3)C(=O)C3CC3)nc12
- MIC [4]: < 0.2 µM
- MIC [5]: 1.56 µM (≈ 0.585 µg/mL)
- MIC [6]: > 200 µM
- MIC [7]: 4.4 µM (≈ 1.65 µg/mL)
- MIC [8]: 2.9 µM (≈ 1.09 µg/mL)
- MIC [9]: 3.9 µM (≈ 1.46 µg/mL)
- MIC [10]: < 0.2 µM
- MIC [11]: 14.8 µM (≈ 5.55 µg/mL)
- MIC [12]: 14.8 µM (≈ 5.55 µg/mL)
- MIC [13]: 4.4 µM (≈ 1.65 µg/mL)
- MIC [14]: > 200 µM
- MIC [15]: 4.4 µM (≈ 1.65 µg/mL)
- MIC [16]: 4.4 µM (≈ 1.65 µg/mL)
- MIC [1]: 3.9 µM (≈ 1.46 µg/mL)
- MIC [17]: 200 µM (≈ 75 µg/mL)
- MIC [18]: 4.4 µM (≈ 1.65 µg/mL)
- Activity [19]: Active
- Activity [20]: Active
- MIC [21]: > 200 µM
- Activity [22]: Active
- MIC [23]: 50 µM (≈ 18.7 µg/mL)

- MIC [1]: 7.4 µM (≈ 3.05 µg/mL)
Structure (SMILES): Cc1cc(Cl)cc2sc(N(CCCn3ccnc3)C(=O)c3ccccn3)nc12
- CC50 [3]: 44.5 µM

Structure (SMILES): NCc1cccc2sc(N(CCCn3ccnc3)C(=O)c3ccco3)nc12
- MIC [4]: 100 µM (≈ 38.1 µg/mL)
- MIC [5]: 100 µM (≈ 38.1 µg/mL)
- MIC [6]: > 200 µM
- MIC [10]: 100 µM (≈ 38.1 µg/mL)
- MIC [14]: > 200 µM
- MIC [1]: 66.7 µM (≈ 25.4 µg/mL)
- MIC [17]: > 200 µM
- MIC [21]: > 200 µM
- MIC [23]: 100 µM (≈ 38.1 µg/mL)

- MIC [1]: 16.5 µM (≈ 6.41 µg/mL)
Structure (SMILES): O=C(c1ccco1)N(CCCn1ccnc1)c1nc2c(F)cc(F)cc2s1
- CC50 [2]: 93.7 µM

Structure (SMILES): CC[C@H]1OC(=O)[C@H](C)[C@@H](O[C@H]2C[C@@](C)(OC)[C@@H](O)[C@H](C)O2)[C@H](C)[C@@H](O[C@@H]2O[C@H](C)C[C@H](N(C)C)[C@H]2O)[C@](C)(O)C[C@@H](C)C(=O)[C@H](C)[C@@H](O)[C@]1(C)O [ERYTHROMYCIN]
- MIC [4]: 2 µM (≈ 1.47 µg/mL)
- MIC [5]: 0.063 µM (≈ 0.0462 µg/mL)
- MIC [6]: 128 µM (≈ 93.9 µg/mL)
- MIC [14]: 64 µM (≈ 47 µg/mL)
- MIC [17]: 4 µM (≈ 2.94 µg/mL)
- MIC [23]: 8 µM (≈ 5.87 µg/mL)

- MIC [1]: 3.3 µM (≈ 1.28 µg/mL)
Structure (SMILES): Cc1cc(Cl)cc2sc(N(CCCn3ccnc3)C(=O)C3(C)CC3)nc12
- CC50 [3]: 54.6 µM

- MIC80 [1]: 3.9 µM (≈ 1.76 µg/mL)
Structure (SMILES): Cc1cc(Cl)cc2sc(N(CCCn3ccnc3)CS(=O)(=O)c3ccco3)nc12
- CC50 [2]: 43.2 µM

- MIC [1]: 100 µM (≈ 36.4 µg/mL)
Structure (SMILES): Cc1cc(Cl)cc2sc(N(CCCn3ccnc3)C(=O)CN)nc12

- MIC [1]: 1.7 µM (≈ 0.685 µg/mL)
Structure (SMILES): Cc1cc(Cl)cc2sc(N(CCCn3ccnc3)C(=O)C3CCCC3)nc12
- selectivity ratio [24]: 34
- CC50 [3]: 59.7 µM

- MIC [1]: > 100 µM
Structure (SMILES): Cc1cc(Cl)cc2sc(NC(=O)c3ccco3)nc12
- CC50 [2]: 17.9 µM
